From patent US20090280141A1, “Streptococcal Genes” (priority 2000, published 2009)

How the values were obtained:
[1] = system: S. pneumoniae strains; assay: Streptonigrin bacterial survival assay; type: cell-based; conditions: 60 minutes incubation with 2.5 μg ml^-1 streptonigrin
Experimental: (§1) For bacterial survival streptonigrin assays, stocks of S. pneumoniae strains grown in Chelex-THY broth and stored at −70° C. were defrosted on ice, pelleted by centrifugation at 20000 g at 4° C. and resuspended in THY to which 2.5 μg ml^−1 of streptonigrin (Sigma) was then added. The reactions were incubated at 37° C., and aliquots of the reaction cultures taken at 40 and 60 minutes after adding streptonigrin were diluted and plated. Cfu at each time point were expressed as a percentage of the cfu prior to adding streptonigrin and the results presented as a ratio of the wild-type strain's results. To assess sensitivity to streptonigrin discs, S. pneumoniae strain stocks cultured in Chelex-THY broth were plated on RPMIm plates with or without 50 μM FeCl3 and 400 μM DIP supplementation at a density of several thousand colonies per plate. Antibiotic discs impregnated with 5 μg streptonigrin were placed onto the plates. After incubation for 20 hours at 37° C. in 5% CO2, the width of the zone of growth inhibition surrounding each disc was measured and confidence intervals for three separate results calculated.

[2] = system: S. pneumoniae strains; assay: Streptonigrin disc sensitivity (zone of growth inhibition); type: cell-based
Experimental: as §1

[3] = system: S. pneumoniae; assay: Sit1D and Sit2A immunisation experiment with IP S. pneumoniae challenge; type: in vivo; conditions: BALBc mice, 10 ug protein IP three times, challenged IP with 10,000 S. pneumoniae cells
Experimental: BALBc were mice given 10 ug of protein (expressed in pQE30 expression vectors in E. coli and purified using the His-tag) via IP, on three occasions separated by 7-10 days, and then challenged 2 weeks after the last immunisation with 10,000 S. pneumoniae cells inoculated IP.
The other proteins were Sit1D, Sit2A, Sit1D combined with Sit2A, Sit1D combined with Pdb, and Sit2A combined with Pbd.

Molecule | fold more cells surviving than wild type cells ([1]; Sit1A- strain) | fold more cells surviving than wild type cells ([1]; Sit1A-/Sit2A- strain) | fold more cells surviving than wild type cells ([1]; Sit2A- strain) | sensitivity to 5 ug streptonigrin discs ([2]; Sit1A-/Sit2A- double mutant, in the presence of 400 μM DIP) | zone of growth inhibition surrounding a streptonigrin disc, versus wild-type strain ([2]; Sit- strains on RPMIm plates) | protection against S. pneumoniae challenge (survival, FIG. 7) [3]
COC1=C(N)C(=O)c2nc(-c3nc(C(=O)O)c(C)c(-c4ccc(OC)c(OC)c4O)c3N)ccc2C1=O [streptonigrin] | Approximately 10 fold | ~1000 fold | Approximately 10 fold | completely resistant | smaller | 
Sit1D: Protein encoded by S. pneumoniae gene Sit1D (SEQ ID NO. 8), putative iron-binding lipoprotein; His-tagged, expressed in E. coli (protein, listed as Salmonella pneumoniae, His tag; CDS (1)..(966), His-tagged, expressed in E. coli) MKTSLKLYFTALVASFLLLLGACSTNSSTSQTETSSSAPTEVTIKSSLDEVKLSKVPEKIVTFDLGAADTIRALGFEKNIVGMPTKTVPTYLKDLVGTVKNVGSMKEPDLEAIAALEPDLIIASPRTQKFVDKFKEIAPTVLFQASKDDYWTSTKANIESLASAFGETGTQKAKEELTKLDKSIQEVATKNESSDKKALAILLNEGKMAAFGAKSRFSFLYQTLKFKPTDTKFEDSRHGQEVSFESVKEINPDILFVINRTLAIGGDNSSNDGVLENALIAETPAAKNGKIIQLTPDLWYLSGGGLESTKLMIEDIQKALK |  |  |  |  |  | as protective as Pdb
